Results published in patent US12161616B2, “Combination therapy comprising an omega-3 fatty acid, a folate species and a vitamin B12 species” (Oxford University Innovation Limited, priority 2014, dated 2024).

System: brain atrophy rate in patients with a diagnosis of MCI
Assay: VITACOG trial: whole brain atrophy per year from MRI scans (SIENA)
Format: in vivo, human
Conditions: for BAR (brain atrophy rate): entire study group
Description: This study was conducted as a part of the VITACOG trial, ‘Homocysteine and B vitamins in cognitive impairment’, and was carried out according to the principles of the Declaration of Helsinki and received approval of the Oxfordshire NHS research ethics committee A (COREC 04/Q1604/100). All participants gave their written informed consent. The study protocol and participants, along with inclusion and exclusion criteria, have been described in detail elsewhere (Smith et al, PLOS One 2010; 5 (9); e12244.doi10.1371/journal.pone. 0012244). In short, 646 patients above 70 years of age with a diagnosis of MCI were assessed for eligibility. After randomization of eligible subjects, and some withdrawals, 133 started treatment with TrioBe Plus® (0.8 mg folic acid, 0.5 mg vitamin B12, and 20 mg vitamin B6, specifically 0.8 mg folic acid, 0.5 mg cyanocobalamin and 20 mg pyridoxine HCl) while 133 received placebo for a duration of 24 months. Participants were only included in this study if brain atrophy data was available.
The MRI protocol used in the VITACOG study has been described in detail elsewhere (Smith et al referenced above). In short, baseline and follow-up volumetric cranial MRI scans were carried out at the Oxford Centre for Clinical Magnetic Resonance Research using a 1.5 T MRI system (Sonata; Siemens Medical Solutions, Erlangen, Germany). Whole brain atrophy per year was estimated from MR images taken at baseline and follow-up, using the fully automated SIENA protocol which provides accuracy and robustness. Normalized brain volume at baseline was estimated from a single image using a cross-sectional method (SIENAX), and used as a covariate in the statistical analyses.
IBM SPSS for Windows, version 20, was used for all statistical analyses (IBM Corp., Armonk, NY, USA). Skewed fatty acids were normalized using their natural logarithms. Unless otherwise stated, fatty acid concentrations at baseline were used for statistical analyses. The main outcome in this study was to investigate the effect of B vitamin treatment on brain atrophy rates, based on baseline omega-3 fatty acid status. Analyses of variance, were used to further examine associations between the fatty acid variables and tHcy and brain atrophy. Two correction models were used. Model A was adjusted for age, sex, and initial brain volume, while model B also adjusted for plasma tHcy, ApoE status, education level, and baseline levels of diastolic blood pressure, triglyceride concentration, and creatinine concentration. When the entire study population was included in the analysis, tHcy measured at follow-up was used as covariate since this measure most likely represents the average tHcy during the trial. When the analysis was confined to the placebo group, tHcy at baseline was used.
Differences between atrophy rate in the placebo and B vitamin groups were assessed using Student's t test, while brain atrophy rates according to different levels of fatty acids (tertiles), were analyzed using ANCOVA. Where an ANCOVA indicated significant differences between tertiles, Bonferroni corrected post hoc comparisons were made between the lowest and the two higher tertiles. […] P<0.05 was considered statistically significant in all analyses.

[1] = HIGH tHcy at follow-up, middle baseline tertile, Model A
[2] = HIGH tHcy at follow-up, middle baseline tertile, Model B
[3] = HIGH tHcy at follow-up, top baseline tertile, Model A
[4] = HIGH tHcy at follow-up, top baseline tertile, Model B
[5] = LOW tHcy at follow-up, middle baseline tertile, Model A
[6] = LOW tHcy at follow-up, middle baseline tertile, Model B
[7] = LOW tHcy at follow-up, top baseline tertile, Model A
[8] = LOW tHcy at follow-up, top baseline tertile, Model B
[9] = HIGH tHcy at follow-up, lowest baseline tertile (DHA <245 μM, EPA <136 μM), Model A
[10] = HIGH tHcy at follow-up, lowest baseline tertile (DHA <245 μM, EPA <136 μM), Model B
[11] = HIGH tHcy at follow-up, middle baseline tertile (DHA 245-345 μM, EPA 136-222 μM), Model A
[12] = HIGH tHcy at follow-up, middle baseline tertile (DHA 245-345 μM, EPA 136-222 μM), Model B
[13] = HIGH tHcy at follow-up, top baseline tertile (DHA >345 μM, EPA >222 μM), Model A
[14] = HIGH tHcy at follow-up, top baseline tertile (DHA >345 μM, EPA >222 μM), Model B
[15] = LOW tHcy at follow-up, lowest baseline tertile (DHA <245 μM, EPA <136 μM), Model A
[16] = LOW tHcy at follow-up, lowest baseline tertile (DHA <245 μM, EPA <136 μM), Model B
[17] = LOW tHcy at follow-up, middle baseline tertile (DHA 245-345 μM, EPA 136-222 μM), Model A
[18] = LOW tHcy at follow-up, middle baseline tertile (DHA 245-345 μM, EPA 136-222 μM), Model B
[19] = LOW tHcy at follow-up, top baseline tertile (DHA >345 μM, EPA >222 μM), Model A
[20] = LOW tHcy at follow-up, top baseline tertile (DHA >345 μM, EPA >222 μM), Model B

CC/C=C\C/C=C\C/C=C\C/C=C\C/C=C\CCCC(=O)O [20:5n-3 (EPA), Eicosapentaenoic acid]
Percent change of BAR compared to the lowest fatty acid tertile [1]: 18%
Percent change of BAR compared to the lowest fatty acid tertile [2]: 11%
Percent change of BAR compared to the lowest fatty acid tertile [3]: 9.5%
Percent change of BAR compared to the lowest fatty acid tertile [4]: 4.3%
Percent change of BAR compared to the lowest fatty acid tertile [5]: −30%
Percent change of BAR compared to the lowest fatty acid tertile [6]: −27%
Percent change of BAR compared to the lowest fatty acid tertile [7]: −33%
Percent change of BAR compared to the lowest fatty acid tertile [8]: −40%
BAR (brain atrophy rate) [9]: 1.02 percent brain whole brain reduction per year
BAR (brain atrophy rate) [10]: 0.98 percent brain whole brain reduction per year
BAR (brain atrophy rate) [11]: 1.19 percent brain whole brain reduction per year
BAR (brain atrophy rate) [12]: 1.20 percent brain whole brain reduction per year
BAR (brain atrophy rate) [13]: 1.11 percent brain whole brain reduction per year
BAR (brain atrophy rate) [14]: 1.13 percent brain whole brain reduction per year
BAR (brain atrophy rate) [15]: 1.07 percent brain whole brain reduction per year
BAR (brain atrophy rate) [16]: 1.14 percent brain whole brain reduction per year
BAR (brain atrophy rate) [17]: 0.73 percent brain whole brain reduction per year
BAR (brain atrophy rate) [18]: 0.76 percent brain whole brain reduction per year
BAR (brain atrophy rate) [19]: 0.69 percent brain whole brain reduction per year
BAR (brain atrophy rate) [20]: 0.63 percent brain whole brain reduction per year

CC/C=C\C/C=C\C/C=C\C/C=C\C/C=C\C/C=C\CCC(=O)O [22:6n-3 (DHA), Docosahexaenoic acid]
Percent change of BAR compared to the lowest fatty acid tertile [1]: 7.7%
Percent change of BAR compared to the lowest fatty acid tertile [2]: 5.7%
Percent change of BAR compared to the lowest fatty acid tertile [3]: 8.6%
Percent change of BAR compared to the lowest fatty acid tertile [4]: 0.4%
Percent change of BAR compared to the lowest fatty acid tertile [5]: −34%
Percent change of BAR compared to the lowest fatty acid tertile [6]: −36%
Percent change of BAR compared to the lowest fatty acid tertile [7]: −37%
Percent change of BAR compared to the lowest fatty acid tertile [8]: −43%
BAR (brain atrophy rate) [9]: 1.08 percent brain whole brain reduction per year
BAR (brain atrophy rate) [10]: 1.06 percent brain whole brain reduction per year
BAR (brain atrophy rate) [11]: 1.12 percent brain whole brain reduction per year
BAR (brain atrophy rate) [12]: 1.14 percent brain whole brain reduction per year
BAR (brain atrophy rate) [13]: 1.13 percent brain whole brain reduction per year
BAR (brain atrophy rate) [14]: 1.08 percent brain whole brain reduction per year
BAR (brain atrophy rate) [15]: 1.09 percent brain whole brain reduction per year
BAR (brain atrophy rate) [16]: 1.20 percent brain whole brain reduction per year
BAR (brain atrophy rate) [17]: 0.71 percent brain whole brain reduction per year
BAR (brain atrophy rate) [18]: 0.70 percent brain whole brain reduction per year
BAR (brain atrophy rate) [19]: 0.68 percent brain whole brain reduction per year
BAR (brain atrophy rate) [20]: 0.62 percent brain whole brain reduction per year
